Test results reported in patent publication US4861793A, “D-nor-7-ergoline derivatives having anti-Parkinson and antipsychosis activity and pharmaceutical compositions containing them” (Farmitalia Carlo Erba, S.p.A, priority 1986, dated 1989).

Experiments:
D1 receptors = target: T1, D1 receptors (Rattus norvegicus, UniProt P18901); test: affinity to D1 receptors (test described by Billard et al., Life Science, p. 35 (1985)); assay type: binding; details: D1 receptor; IC means inhibitory concentration
T1 construct: from tissue
Description: (§1) The activity of the compounds of the present invention has been confirmed by their affinity to α2 and D1 receptors, according to the tests described by Djop, J. Neurochemistry, 41, p. 710 (1983) and by Billard et al., Life Science, p. 35 (1985).

α2 receptors = target: T2, α2 receptors (Rattus norvegicus, UniProt P22909); test: affinity to α2 receptors (test described by Djop, J. Neurochemistry, 41, p. 710 (1983)); assay type: binding; details: α2 receptor; IC means inhibitory concentration
T2 construct: from tissue
T2 sequence (P22909 1-465): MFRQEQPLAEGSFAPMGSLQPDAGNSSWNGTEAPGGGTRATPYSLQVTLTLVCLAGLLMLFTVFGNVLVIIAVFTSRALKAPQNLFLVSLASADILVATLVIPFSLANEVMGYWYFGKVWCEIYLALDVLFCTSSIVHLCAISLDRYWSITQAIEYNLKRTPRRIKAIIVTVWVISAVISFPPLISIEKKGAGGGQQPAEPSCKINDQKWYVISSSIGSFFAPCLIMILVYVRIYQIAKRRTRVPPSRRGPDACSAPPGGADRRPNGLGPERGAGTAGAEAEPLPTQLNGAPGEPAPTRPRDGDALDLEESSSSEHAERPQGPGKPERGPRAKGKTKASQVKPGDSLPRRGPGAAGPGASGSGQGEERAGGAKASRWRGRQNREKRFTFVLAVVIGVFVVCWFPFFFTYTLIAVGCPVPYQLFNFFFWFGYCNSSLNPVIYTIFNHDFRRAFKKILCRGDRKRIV
Description: as §1

T1 sequence (P18901 whole entry): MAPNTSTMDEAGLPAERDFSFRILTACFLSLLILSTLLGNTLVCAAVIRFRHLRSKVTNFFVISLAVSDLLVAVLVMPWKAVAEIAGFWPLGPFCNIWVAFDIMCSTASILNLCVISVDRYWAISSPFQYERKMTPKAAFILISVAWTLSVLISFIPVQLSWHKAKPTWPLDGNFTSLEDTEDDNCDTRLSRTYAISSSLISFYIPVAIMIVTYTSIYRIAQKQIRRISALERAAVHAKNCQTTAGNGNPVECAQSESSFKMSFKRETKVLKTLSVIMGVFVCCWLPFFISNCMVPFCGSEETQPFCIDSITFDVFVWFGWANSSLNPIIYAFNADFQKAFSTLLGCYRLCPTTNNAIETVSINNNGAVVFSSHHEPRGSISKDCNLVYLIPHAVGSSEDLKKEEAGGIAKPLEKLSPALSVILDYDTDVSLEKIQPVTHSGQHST

IC50 (D1 receptors) | IC50 (α2 receptors) | Structure (SMILES)
0.4 nM | 0.05 nM | CN1C(CCN2CC(=O)NC2=O)CC2c3cccc4[nH]cc(c34)CC21 [Example 10, D-nor-6-methyl-7-(2,4-dioxo-1-imidazolidinyl-ethyl)-ergoline]
0.9 nM | 0.4 nM | CCNC(=O)N(CCCN(C)C)C(=O)CC1CC2c3cccc4[nH]cc(c34)CC2N1C [Example 6, D-nor-6-methyl-7[N-(3-dimethylaminopropyl)-N-(ethylcarbamoyl)]-carbamoylmethyl-ergoline]
0.7 nM | 0.04 nM | CN1C(CCNC(=O)OCc2ccccc2)CC2c3cccc4[nH]cc(c34)CC21 [Example 8, D-nor-6-methyl-7-benzyloxycarbamoylethyl-ergoline]
